In US9993423B2, “Microneedle deposition method” (COSMED PHARMACEUTICAL CO., LTD., priority 2011, dated 2018):

System: diabetes model rats created by administration of streptozotocin
Assay: Blood glucose level measurement test after insulin administration
Assay type: in vivo, rat
Details: 0.5, 1 and 2 hours, fasted diabetes model rats, FIG. 2
Experimental: Insulin was transdermally administered to rats using the manufactured microneedle array.
In diabetes model rats created by administration of streptozotocin (Body weight: about 300 g), their abdomens were dehaired. After these rats were fasted for 14 hours or longer, the microneedle array was inserted to the dehaired skin and fixed to the skin by YU-KI BAN (NITTO MEDICAL CORPORATION). Blood was sampled 0.5, 1 and 2 hours after administration of the microneedle array, and the blood glucose levels were measured. For measurement of the blood glucose levels, Glucose CII-test kit (Wako Pure Chemical Industries, Ltd.) was used. The tests were conducted in four cases.
Insulin was subcutaneously injected to rats.
After the diabetes model rats were fasted for 14 hours or longer, 0.25 units of insulin were subcutaneously injected. Blood was sampled 0.5, 1 and 2 hours after administration of insulin, and the blood glucose levels were measured. For measurement of the blood glucose levels, Glucose CII-test kit was used like Example 1. […]. The tests were conducted in four cases.
As a standard of the blood glucose level measurement test, a control (no insulin) was measured.
After the diabetes model rats were fasted for 14 hours or longer, blood was sampled 0.5, 1 and 2 hours later, and the blood glucose levels were measured. […]

With “insulin: Bovine insulin (NACALAI TESQUE), given on hyaluronic acid microneedle array tips (0.25 unit per array) or by subcutaneous injection” the “blood glucose level (relative value, time zero = 100)” value (microneedle array, 0.25 unit insulin, transdermal on dehaired abdomen) was “lowered” and the “blood glucose level (relative value, time zero = 100)” value (subcutaneous injection, 0.25 units of insulin) was “lowered”.
